# In PMC12621043, “Un-LOK-ing a New Approach for Conformational Selective Targeting of STK10 (LOK)” (ACS Medicinal Chemistry Letters, 2025):
# Key:
# Assay in all cases: DSF Tm panel
# Type in all cases: binding
# Conditions in all cases: 10 μM compound
# [1] = system: RPS6KA6A
# [2] = biological target: T1, CSNK1EA (Homo sapiens, UniProt P49674)
# T1 construct: purchased in-house DSF kinase panel (SGC-style construct names; the trailing letter is the construct ID)
# T1 sequence (P49674 1-294): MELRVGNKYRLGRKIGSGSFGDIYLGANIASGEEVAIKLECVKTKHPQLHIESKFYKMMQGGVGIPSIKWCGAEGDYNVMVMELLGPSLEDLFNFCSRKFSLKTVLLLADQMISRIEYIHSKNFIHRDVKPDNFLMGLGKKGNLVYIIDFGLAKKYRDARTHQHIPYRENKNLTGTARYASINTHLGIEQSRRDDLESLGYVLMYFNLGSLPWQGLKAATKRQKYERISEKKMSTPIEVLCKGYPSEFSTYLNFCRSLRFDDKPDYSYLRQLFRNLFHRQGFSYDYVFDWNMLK
# [3] = biological target: T2, BRPF1B (Homo sapiens, UniProt P55201)
# T2 construct: purchased in-house DSF kinase panel (SGC-style construct names; the trailing letter is the construct ID)
# T2 sequence (P55201 1-1214): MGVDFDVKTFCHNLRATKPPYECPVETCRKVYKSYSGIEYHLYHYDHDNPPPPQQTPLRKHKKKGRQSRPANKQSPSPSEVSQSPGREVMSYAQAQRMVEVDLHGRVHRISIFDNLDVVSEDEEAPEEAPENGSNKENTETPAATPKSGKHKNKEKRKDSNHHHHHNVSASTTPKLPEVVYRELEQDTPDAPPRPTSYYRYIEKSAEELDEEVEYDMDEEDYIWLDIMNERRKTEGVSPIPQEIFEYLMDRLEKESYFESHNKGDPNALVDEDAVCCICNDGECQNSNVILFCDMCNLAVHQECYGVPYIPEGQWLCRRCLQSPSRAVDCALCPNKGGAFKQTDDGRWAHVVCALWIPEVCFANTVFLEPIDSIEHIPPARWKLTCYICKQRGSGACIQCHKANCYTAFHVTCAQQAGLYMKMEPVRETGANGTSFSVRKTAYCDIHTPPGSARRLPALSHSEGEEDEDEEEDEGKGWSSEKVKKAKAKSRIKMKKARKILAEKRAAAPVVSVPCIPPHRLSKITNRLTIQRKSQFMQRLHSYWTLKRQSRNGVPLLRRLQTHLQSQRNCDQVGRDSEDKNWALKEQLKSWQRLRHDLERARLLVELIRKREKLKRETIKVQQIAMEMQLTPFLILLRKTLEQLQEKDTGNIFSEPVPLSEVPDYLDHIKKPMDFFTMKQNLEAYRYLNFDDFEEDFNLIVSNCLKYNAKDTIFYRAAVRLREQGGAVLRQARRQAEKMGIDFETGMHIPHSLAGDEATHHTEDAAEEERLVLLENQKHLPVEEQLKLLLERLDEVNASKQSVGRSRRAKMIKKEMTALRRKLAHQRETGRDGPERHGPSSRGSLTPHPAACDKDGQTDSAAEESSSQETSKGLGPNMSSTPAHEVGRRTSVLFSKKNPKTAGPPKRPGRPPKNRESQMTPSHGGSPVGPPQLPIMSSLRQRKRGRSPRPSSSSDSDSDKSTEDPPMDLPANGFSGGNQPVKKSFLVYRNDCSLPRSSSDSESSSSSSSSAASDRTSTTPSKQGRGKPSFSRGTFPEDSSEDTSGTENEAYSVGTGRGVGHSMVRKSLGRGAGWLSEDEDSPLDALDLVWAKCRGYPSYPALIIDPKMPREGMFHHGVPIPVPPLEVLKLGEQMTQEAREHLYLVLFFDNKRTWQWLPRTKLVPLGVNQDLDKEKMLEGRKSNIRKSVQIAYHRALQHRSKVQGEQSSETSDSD
# [4] = biological target: T3, NEK2A (Homo sapiens, UniProt P51955)
# T3 construct: purchased in-house DSF kinase panel (SGC-style construct names; the trailing letter is the construct ID)
# T3 sequence (P51955 1-271): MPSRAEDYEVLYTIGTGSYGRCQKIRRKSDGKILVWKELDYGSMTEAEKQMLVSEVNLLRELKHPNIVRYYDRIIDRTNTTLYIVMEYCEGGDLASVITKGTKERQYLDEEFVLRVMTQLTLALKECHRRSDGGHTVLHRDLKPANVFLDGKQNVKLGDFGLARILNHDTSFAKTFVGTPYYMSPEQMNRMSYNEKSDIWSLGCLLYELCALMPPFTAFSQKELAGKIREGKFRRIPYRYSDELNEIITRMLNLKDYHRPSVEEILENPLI
# [5] = biological target: T4, EPHB1A (Homo sapiens, UniProt P54762)
# T4 construct: purchased in-house DSF kinase panel (SGC-style construct names; the trailing letter is the construct ID)
# T4 sequence (P54762 602-896): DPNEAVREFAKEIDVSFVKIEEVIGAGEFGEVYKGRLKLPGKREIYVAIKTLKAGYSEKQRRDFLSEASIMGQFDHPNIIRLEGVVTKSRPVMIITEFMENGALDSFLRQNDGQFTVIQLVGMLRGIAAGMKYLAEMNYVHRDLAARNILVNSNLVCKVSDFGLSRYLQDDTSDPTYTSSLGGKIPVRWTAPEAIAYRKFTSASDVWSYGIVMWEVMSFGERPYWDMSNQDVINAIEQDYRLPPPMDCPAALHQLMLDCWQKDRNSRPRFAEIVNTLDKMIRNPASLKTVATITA
SMILES,ΔTm at 10 µM [2] [°C],ΔTm at 10 µM [3] [°C],ΔTm at 10 µM [4] [°C],ΔTm at 10 µM [5] [°C],ΔTm RPS6KA6A [1]
O=C(NCc1ccc(Cl)cc1)Nc1ccc2cc1OCCOCCNc1ccn3ncc-2c3n1 [compound 19],,,,,"-0,2 °C"
O=C(NCc1ccccc1Cl)Nc1ccc2cc1OCCOCCNc1ccn3ncc-2c3n1 [compound 17],,,,,"-0,3 °C"
O=C(NCc1ccc(Cl)cc1F)Nc1ccc2cc1OCCOCCNc1ccn3ncc-2c3n1 [compound 21],,,,,"-0,7 °C"
O=C(NCc1ccccc1)Nc1ccc2cc1OCCOCCNc1ccn3ncc-2c3n1 [compound 16],,,,,"-1,2 °C"
Cc1ccc(F)cc1CNC(=O)Nc1ccc2cc1OCCOCCNc1ccn3ncc-2c3n1 [compound 26],0.7,1,-1.2,0.3,
C[C@H](NC(=O)Nc1ccc2cc1OCCOCCNc1ccn3ncc-2c3n1)c1ccccc1 [compound 34],0.4,0.5,-1.3,0.1,
O=C(NCc1ccccc1C(F)(F)F)Nc1ccc2cc1OCCOCCNc1ccn3ncc-2c3n1 [compound 27],0,1.9,-0.4,0.3,
O=C(NCc1ccc(Cl)cc1Cl)Nc1ccc2cc1OCCOCCNc1ccn3ncc-2c3n1 [compound 20],,,,,"0,5 °C"
CN1CCN(C(=O)Nc2ccc3cc2OCCOCCNc2ccn4ncc-3c4n2)CC1 [compound 35],,,,,"-0,3 °C"
O=C(NCc1cccc(Cl)c1)Nc1ccc2cc1OCCOCCNc1ccn3ncc-2c3n1 [compound 18],,,,,"-0,3 °C"
Cc1cc(Cl)ccc1CNC(=O)Nc1ccc2cc1OCCOCCNc1ccn3ncc-2c3n1 [compound 23],,,,,"-0,3 °C"

# More lines, main results first:
ΔTm at 10 µM [2] [°C],ΔTm at 10 µM [3] [°C],ΔTm at 10 µM [4] [°C],ΔTm at 10 µM [5] [°C],SMILES,ΔTm RPS6KA6A [1]
0.6,1.2,-1.3,0.5,COc1cc(CNC(=O)Nc2ccc3cc2OCCOCCNc2ccn4ncc-3c4n2)ccc1F [compound 33],
0.7,-0.1,-0.3,0.1,COc1ccccc1CNC(=O)Nc1ccc2cc1OCCOCCNc1ccn3ncc-2c3n1 [compound 29],
0.3,1.5,-1.3,0.3,COc1ccc(CNC(=O)Nc2ccc3cc2OCCOCCNc2ccn4ncc-3c4n2)cc1F [compound 32],
0.6,1,-1.3,0.4,COc1ccc(CNC(=O)Nc2ccc3cc2OCCOCCNc2ccn4ncc-3c4n2)cc1 [compound 31],
0.7,1.6,-1.3,0.2,Cc1cc(Br)ccc1CNC(=O)Nc1ccc2cc1OCCOCCNc1ccn3ncc-2c3n1 [compound 24],
-0.2,2.2,0.4,0.5,O=C(NCc1ccc(C(F)(F)F)cc1)Nc1ccc2cc1OCCOCCNc1ccn3ncc-2c3n1 [compound 28],
0.7,0.2,-0.5,0.2,COc1cccc(CNC(=O)Nc2ccc3cc2OCCOCCNc2ccn4ncc-3c4n2)c1 [compound 30],
